These results are taken from PMC3200115, “Peptide Inhibition of Topoisomerase IB from Plasmodium falciparum” (Molecular Biology International, 2011).

Bridges are numbered along the chain shown (N, C = ends). Where no end group is shown, it is not given here.

Experiment [1] relates to P. falciparum topoisomerase I (pfTopoI). Briefly: Plasmid (pBR322) DNA relaxation by pfTopoI. The class given is biochemical, Plasmodium falciparum. The following applies: peptide 1.3 to 50 μM; even at concentrations up to 50 μM; 30 min, 37°C.
For experiment [2], the system named is DNA. The experiment in a line: Unspecific DNA binding. The following applies: confirmed in the present study, data not shown.
The subject of experiment [3] is type IB Topo of Vaccinia virus (vvTopoI). The following applies: cited from earlier work; for step of catalysis inhibited (vvTopoI): DNA relaxation by vvTopoI; for step of catalysis inhibited (vvTopoI) / inhibition of vvTopoI relaxation activity: ref [39], [40]; for activity against vvTopoI: from rescreening of peptide combinatorial library against vvTopoI, ref [40].

The subject of experiment [4] is bacteriophage λ-Int. The following applies: ref [39], [40]; cited from earlier work.

On to “KCCRCK (disulfide (positions not given here)) [synthetic hexapeptide purchased from GenScript]”, for which the “effect on relaxation activity of pfTopoI” value in experiment [1] was “no effect”. For the same substance, the DNA binding capacity entry in experiment [2] is given as “unspecific DNA binding capacity”. In addition, in experiment [3], the “step of catalysis inhibited (vvTopoI)” value was “specific inhibition of the cleavage and not the ligation step of catalysis”; the “activity against vvTopoI” value is “high activity”; the “inhibition of vvTopoI relaxation activity” value was “inhibited the relaxation activity of vvTopoI”. The “step of catalysis inhibited (λ-Int)” value in experiment [4] was “specific inhibition of the cleavage and not the ligation step of catalysis”.

Take “WYCRCK (disulfide 3-5 (inferred)) [synthetic hexapeptide purchased from GenScript]”: the “effect on relaxation activity of pfTopoI” value in experiment [1] was “no effect”. Besides, in experiment [2], the DNA binding capacity entry is on record as “unspecific DNA binding capacity”. Moreover, in experiment [3], the “step of catalysis inhibited (vvTopoI)” value is “specific inhibition of the cleavage and not the ligation step of catalysis”; the “activity against vvTopoI” value was “high activity”; the “inhibition of vvTopoI relaxation activity” value was “inhibited the relaxation activity of vvTopoI”. Also, the “step of catalysis inhibited (λ-Int)” value in experiment [4] was “specific inhibition of the cleavage and not the ligation step of catalysis”.
